Data reported in the supplement of paper PMC10307832.

Compound: C[C@H]([C@@H](C(=O)N)NC(=O)[C@@H]1CSSC[C@@H](C(=O)N[C@H](C(=O)N[C@@H](C(=O)N[C@H](C(=O)N1)CCCCN)CC2=CNC3=CC=CC=C32)CC4=CC=C(C=C4)O)NC(=O)[C@@H](CC5=CC=CC=C5)N)O [CAP-232] + NC(=O)Nc1cc(-c2cccc(F)c2)sc1C(=O)N[C@H]1CCCNC1 [AZD7762] (partner 0.2 µM)
Assay: relative viability (nuclei count vs DMSO), 5 days (fraction); higher = more cells survive
Summary of the method: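 Five library-drug doses in √10 steps were combined with a fixed anchor-drug dose, or a single drug was given alone, by pin tool to lung cancer cell lines in 1536-well plates the day after seeding. Nuclei were stained and counted after 5 days. Relative viability is the nuclei count in treated wells over that in vehicle wells, taken as the median of duplicate plates.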

Cell Line | relative viability (first compound 0.4 µM) | relative viability (first compound 1.265 µM) | relative viability (first compound 4 µM) | relative viability (first compound 12.65 µM)
201T | 0.636 | 0.716 | 0.643 | 0.643
A-427 | 0.72 | 0.754 | 0.811 | 0.746
ABC-1 | 0.883 | 0.541 | 0.803 | 0.692
BEN | 0.789 | 0.714 | 0.7 | 0.553
CAL-12T | 0.753 | 0.596 | 0.664 | 0.706
ChaGo-K-1 | 0.869 | 0.868 | 0.916 | 0.817
EKVX | 0.899 | 0.712 | 0.699 | 0.471
EMC-BAC-2 | 1.28 | 1.05 | 1.12 | 0.828
EPLC-272H | 0.287 | 0.165 | 0.228 | 0.209
H3255 | 0.979 | 0.869 | 0.898 | 0.756
HARA | 0.397 | 0.576 | 0.267 | 0.315
HCC-15 | 1.36 | 1.28 | 1.34 | 1.14
HCC-44 | 0.995 | 1.06 | 1.04 | 0.986
HCC-78 | 0.747 | 0.612 | 0.591 | 0.713
HCC-366 | 0.399 | 0.328 | 0.308 | 0.374
HCC-827 | 0.19 | 0.204 | 0.174 | 0.182
HOP-62 | 0.883 | 0.482 | 0.981 | 0.607
LC-2-ad | 0.917 | 0.815 | 0.919 | 0.688
LCLC-97TM1 | 0.442 | 0.238 | 0.341 | 0.429
LCLC-103H | 0.89 | 0.792 | 0.891 | 0.747
LK-2 | 0.357 | 0.274 | 0.322 | 0.376

Cell Line | relative viability (first compound 0.4 µM) | relative viability (first compound 1.265 µM) | relative viability (first compound 4 µM) | relative viability (first compound 12.65 µM)
LOU-NH91 | 0.857 | 0.758 | 0.799 | 0.287
LU99A | 0.422 | 0.359 | 0.269 | 0.335
LXF-289 | 1.19 | 1.16 | 1.15 | 1.27
NCI-H23 | 0.286 | 0.236 | 0.239 | 0.22
NCI-H322M | 0.827 | 0.645 | 0.528 | 0.556
NCI-H358 | 0.466 | 0.406 | 0.376 | 0.318
NCI-H441 | 1.03 | 1.16 | 1.22 | 0.922
NCI-H460 | 0.856 | 0.58 | 0.734 | 0.416
NCI-H522 | 0.876 | 1.08 | 0.926 | 1.04
NCI-H596 | 1.1 | 1.13 | 1.05 | 1.09
NCI-H647 | 0.767 | 0.33 | 0.696 | 0.282
NCI-H650 | 1.29 | 1.03 | 1.02 | 0.951
NCI-H727 | 0.572 | 0.586 | 0.612 | 0.617
NCI-H838 | 1.05 | 0.995 | 0.989 | 0.823
NCI-H1355 | 0.794 | 0.82 | 0.872 | 0.706
NCI-H1395 | 0.511 |  | 0.423 | 0.224
NCI-H1437 | 1.15 | 1.11 | 1.09 | 1.05
NCI-H1651 | 0.487 | 0.429 | 0.553 | 0.481
NCI-H1666 | 0.918 | 0.882 | 0.859 | 0.908
NCI-H1703 | 0.124 |  | 0.143 | 0.146
NCI-H1734 | 0.637 | 0.578 | 0.527 | 0.426

Cell Line | relative viability (first compound 0.4 µM) | relative viability (first compound 1.265 µM) | relative viability (first compound 4 µM) | relative viability (first compound 12.65 µM)
NCI-H1755 | 0.453 | 0.396 | 0.536 | 0.403
NCI-H1792 | 0.892 | 0.715 | 0.793 | 0.757
NCI-H1793 | 0.437 | 0.618 | 0.518 | 0.524
NCI-H1915 | 0.771 | 0.685 | 0.704 | 0.762
NCI-H1944 | 0.516 | 0.476 | 0.452 | 0.367
NCI-H1975 | 0.892 | 0.711 | 0.712 | 0.442
NCI-H1993 | 0.756 | 0.702 | 0.694 | 0.633
NCI-H2085 | 1.04 | 1.03 | 0.988 | 0.964
NCI-H2087 | 1.32 | 1.4 | 1.59 | 0.684
NCI-H2126 | 1.11 | 1.01 | 1.18 | 1.01
NCI-H2170 | 0.915 | 0.907 | 0.906 | 0.846
NCI-H2342 | 0.478 | 0.539 | 0.586 | 0.574
NCI-H2347 | 0.733 | 0.746 | 0.726 | 0.662
NCI-H2405 | 0.822 | 0.8 | 0.765 | 0.524
NCI-H3122 | 0.984 | 1.08 | 1.14 | 0.958
PC-3 [JPC-3] | 1.02 | 0.735 | 0.873 | 0.794
PC-14 | 0.522 | 0.297 | 0.334 | 0.24
RERF-LC-KJ | 1.01 | 1.03 | 0.997 | 0.914
SW 900 | 0.666 | 0.604 | 0.515 | 0.547
